Results taken from patent US20240116921A1, “LACTAM (HETERO)[…] DERIVATIVES AS INHIBITORS OF ERBB2” (EnLiven Therapeutics, Inc., priority 2020, published 2024).

Columns and labels:
[1] = biological target: T1, phosphorylated EGFR (pEGFR) (Homo sapiens, UniProt P00533); assay: Detection of phosphorylated EGFR (pEGFR) in EGF-stimulated A431 cells; type: cell-based; details: A431 cells (10% FBS), 4 hours incubation, EGF 30 ng/mL 10 minutes, AlphaLISA
T1 construct: performed to measure phosphorylated EGFR levels using A431 cells (10% FBS); endogenous in cells; host or cells: A431
T1 sequence (P00533 25-1210): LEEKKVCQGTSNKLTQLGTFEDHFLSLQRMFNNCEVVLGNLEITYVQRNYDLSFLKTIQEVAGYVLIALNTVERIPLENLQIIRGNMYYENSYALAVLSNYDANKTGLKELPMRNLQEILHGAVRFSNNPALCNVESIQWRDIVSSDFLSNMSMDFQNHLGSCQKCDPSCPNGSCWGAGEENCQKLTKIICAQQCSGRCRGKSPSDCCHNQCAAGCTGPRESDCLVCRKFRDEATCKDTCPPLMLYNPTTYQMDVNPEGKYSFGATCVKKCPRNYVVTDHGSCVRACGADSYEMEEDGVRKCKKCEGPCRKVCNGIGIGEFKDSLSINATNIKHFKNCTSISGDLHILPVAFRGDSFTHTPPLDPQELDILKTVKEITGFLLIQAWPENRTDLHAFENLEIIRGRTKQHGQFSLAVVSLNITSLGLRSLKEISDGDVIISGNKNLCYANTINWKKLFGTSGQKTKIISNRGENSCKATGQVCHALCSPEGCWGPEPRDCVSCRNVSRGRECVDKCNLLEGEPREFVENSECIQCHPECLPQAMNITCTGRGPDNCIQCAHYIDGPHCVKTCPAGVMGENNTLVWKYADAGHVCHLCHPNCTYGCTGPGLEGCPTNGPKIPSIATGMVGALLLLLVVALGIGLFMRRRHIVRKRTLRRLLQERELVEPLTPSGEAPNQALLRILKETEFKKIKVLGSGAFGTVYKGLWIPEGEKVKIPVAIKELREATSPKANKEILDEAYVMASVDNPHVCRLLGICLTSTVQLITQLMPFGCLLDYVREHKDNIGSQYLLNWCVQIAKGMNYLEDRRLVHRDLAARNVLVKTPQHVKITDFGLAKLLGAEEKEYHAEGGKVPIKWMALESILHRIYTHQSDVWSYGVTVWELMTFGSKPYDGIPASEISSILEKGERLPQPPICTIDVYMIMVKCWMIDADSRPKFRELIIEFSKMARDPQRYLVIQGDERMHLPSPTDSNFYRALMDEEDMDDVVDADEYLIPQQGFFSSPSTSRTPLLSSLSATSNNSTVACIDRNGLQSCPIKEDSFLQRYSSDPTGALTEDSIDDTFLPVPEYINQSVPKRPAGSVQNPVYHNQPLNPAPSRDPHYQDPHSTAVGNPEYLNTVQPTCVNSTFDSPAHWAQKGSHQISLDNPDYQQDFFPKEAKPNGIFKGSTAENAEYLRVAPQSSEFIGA
Description: Enzyme-linked immunosorbent assays (ELISA) were performed to measure phosphorylated EGFR levels using A431 cells (10% FBS). A431 (1.0*10^4 cells/40 μl/well) cells were seeded in 384 well. Compounds were dissolved in DMSO, serially diluted in DMSO and then were added, mixed, and incubated for 4 hours at 37° C., 5% CO2. Following the 4-hours incubation, cells were stimulated for 10 minutes with EGF (Invitrogen, cat #PHG0311) at a final concentration of 30 ng/mL in the incubator. The media was aspirated and cells were lysed in 10 μL lysis buffer with protease and phosphatase inhibitors (PerkinElmer, cat #ALSU-PEGFR-A50K). The plates were placed on a shaker for 5 minutes and then incubated for 30 min at 4° C. for complete lysis. The lysate was transferred to an Optiplate (Perkin Elmer, cat #6007290).
Acceptor mix (PerkinElmer, cat #ALSU-PEGFR-A50K) was prepared just before use and 5 μL was dispensed to all the wells, followed by a 1.5-2 h incubation at room temperature in dark. The donor mix (PerkinElmer, cat #ALSU-PEGFR-A50K) was prepared under low light conditions prior to use and […] of donor mix was added to all the wells under subdued lighting or green filters. The plates were placed on a shaker for 5 min, sealed, and incubated overnight at room temperature in dark. Plates were read on the Envision (PerkinElmer) using standard AlphaLISA settings.
The percentage of inhibition on EGFR phosphorylation was calculated following equation: % Inhibition=100×(LumHC−LumSample)/(LumHC−LumLC). The low and high controls (LC/HC) are generated from lysate from wells with cells treated with DMSO or […] Staurosporine (BioAustralis, cat #BIA-S1086), […]. IC50 values were calculated by fitting the Curve using XLfit (v5.3.1.3), equation 201: Y=Bottom+(Top−Bottom)/(1+10^((Log IC50−X)*HillSlope)).

[2] = biological target: Ba/F3 ERBB2 A775_G776insYVMA (Homo sapiens, UniProt P04626, DUP772-775, cells depend on it); assay: Cell viability assay, Ba/F3 ERBB2 A775_G776insYVMA; type: cell-based, mouse; details: Ba/F3 ERBB2 YVMA cells, cell viability, 72 hours, CellTiter Glo; Table B5; read-out: Ba/F3 ERBB2 YVMA, IC50
Sequence of Ba/F3 ERBB2 A775_G776insYVMA (P04626 with tags, fused parts or gaps DUP772-775): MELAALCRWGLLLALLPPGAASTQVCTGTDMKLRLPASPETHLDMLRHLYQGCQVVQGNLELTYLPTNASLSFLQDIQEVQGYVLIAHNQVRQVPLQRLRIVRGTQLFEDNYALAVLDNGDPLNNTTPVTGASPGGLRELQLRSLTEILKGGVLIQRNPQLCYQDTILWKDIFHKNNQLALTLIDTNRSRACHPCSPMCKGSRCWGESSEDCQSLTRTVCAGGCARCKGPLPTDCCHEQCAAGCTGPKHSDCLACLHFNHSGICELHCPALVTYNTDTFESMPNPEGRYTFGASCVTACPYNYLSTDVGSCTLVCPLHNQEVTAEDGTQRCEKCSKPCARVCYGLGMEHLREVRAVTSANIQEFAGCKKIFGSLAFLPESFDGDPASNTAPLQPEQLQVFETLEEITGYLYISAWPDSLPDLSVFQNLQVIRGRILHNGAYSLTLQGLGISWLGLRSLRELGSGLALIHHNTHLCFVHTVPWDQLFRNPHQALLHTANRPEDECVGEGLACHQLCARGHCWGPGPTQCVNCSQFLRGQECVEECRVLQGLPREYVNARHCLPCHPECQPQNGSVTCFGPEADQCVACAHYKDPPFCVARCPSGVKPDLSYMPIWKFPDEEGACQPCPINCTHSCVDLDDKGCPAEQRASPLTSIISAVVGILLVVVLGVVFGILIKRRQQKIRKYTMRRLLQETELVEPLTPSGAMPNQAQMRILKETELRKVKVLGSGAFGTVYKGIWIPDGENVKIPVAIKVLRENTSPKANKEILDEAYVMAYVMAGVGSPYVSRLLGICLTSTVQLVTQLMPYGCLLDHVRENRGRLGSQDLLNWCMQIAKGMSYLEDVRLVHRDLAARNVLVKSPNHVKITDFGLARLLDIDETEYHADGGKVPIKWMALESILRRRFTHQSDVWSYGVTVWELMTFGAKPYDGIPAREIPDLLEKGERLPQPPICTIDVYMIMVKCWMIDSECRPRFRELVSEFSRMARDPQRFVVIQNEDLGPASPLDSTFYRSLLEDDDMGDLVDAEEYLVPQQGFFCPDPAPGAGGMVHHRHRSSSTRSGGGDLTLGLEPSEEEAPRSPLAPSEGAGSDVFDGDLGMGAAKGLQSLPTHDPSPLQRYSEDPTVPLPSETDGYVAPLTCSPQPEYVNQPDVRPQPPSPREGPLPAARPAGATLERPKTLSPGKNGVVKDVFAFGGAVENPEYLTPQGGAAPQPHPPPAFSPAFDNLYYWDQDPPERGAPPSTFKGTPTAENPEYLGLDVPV
Description: Cells were treated with compounds, and cell viability was measured as a metric of kinase inhibition.
The Ba/F3 cell line is IL-3-dependent mouse cell line derived from the C3H mouse strain. Ba/F3 cell lines were engineered to express human ERBB2 or EGFR kinases, rendering the cells IL-3 independent. The lines were generated via retroviral transduction utilizing a Moloney murine leukemia virus (MMLV) promoter, and constructs are stably integrated into the cell genome. The sequences of the ERBB2 and EGFR genes used were NCBI Reference Sequences NM_004448.3 and NM_005228.3, respectively.
Similarly, Ba/F3 cell lines engineered to express EGFR, ERBB2, or ERBB2 mutants were grown, harvested, counted and seeded at 3000 cells per well in 96-well plates. A subset of wells contained media only (low control, “LC”).
Table B1 provides the growth media and number of cells seeded per well for the each cell line.
Plates were placed in a 37° C., 5% CO2 incubator for 72 hours. Plates were then removed from the incubator and equilibrated for 15 minutes at room temperature. 40 μl of CellTiter Glo reagent (Promega) was added to measure the relative level of metabolically active cells by quantifying intracellular ATP concentrations. Plates were incubated for 30 minutes at room temperature, and luminescence was measured. […] Graphical curves were fitted using a nonlinear regression model with a sigmoidal dose response.

[3] = biological target: T2, phosphorylated ERBB2 (pERBB2) (Homo sapiens, UniProt P04626); assay: Detection of phosphorylated ERBB2 (pERBB2) by ELISA in BT-474 cells; type: cell-based; details: four hours incubation
T2 construct: endogenous in cells; host or cells: BT-474
T2 sequence (P04626 23-1255): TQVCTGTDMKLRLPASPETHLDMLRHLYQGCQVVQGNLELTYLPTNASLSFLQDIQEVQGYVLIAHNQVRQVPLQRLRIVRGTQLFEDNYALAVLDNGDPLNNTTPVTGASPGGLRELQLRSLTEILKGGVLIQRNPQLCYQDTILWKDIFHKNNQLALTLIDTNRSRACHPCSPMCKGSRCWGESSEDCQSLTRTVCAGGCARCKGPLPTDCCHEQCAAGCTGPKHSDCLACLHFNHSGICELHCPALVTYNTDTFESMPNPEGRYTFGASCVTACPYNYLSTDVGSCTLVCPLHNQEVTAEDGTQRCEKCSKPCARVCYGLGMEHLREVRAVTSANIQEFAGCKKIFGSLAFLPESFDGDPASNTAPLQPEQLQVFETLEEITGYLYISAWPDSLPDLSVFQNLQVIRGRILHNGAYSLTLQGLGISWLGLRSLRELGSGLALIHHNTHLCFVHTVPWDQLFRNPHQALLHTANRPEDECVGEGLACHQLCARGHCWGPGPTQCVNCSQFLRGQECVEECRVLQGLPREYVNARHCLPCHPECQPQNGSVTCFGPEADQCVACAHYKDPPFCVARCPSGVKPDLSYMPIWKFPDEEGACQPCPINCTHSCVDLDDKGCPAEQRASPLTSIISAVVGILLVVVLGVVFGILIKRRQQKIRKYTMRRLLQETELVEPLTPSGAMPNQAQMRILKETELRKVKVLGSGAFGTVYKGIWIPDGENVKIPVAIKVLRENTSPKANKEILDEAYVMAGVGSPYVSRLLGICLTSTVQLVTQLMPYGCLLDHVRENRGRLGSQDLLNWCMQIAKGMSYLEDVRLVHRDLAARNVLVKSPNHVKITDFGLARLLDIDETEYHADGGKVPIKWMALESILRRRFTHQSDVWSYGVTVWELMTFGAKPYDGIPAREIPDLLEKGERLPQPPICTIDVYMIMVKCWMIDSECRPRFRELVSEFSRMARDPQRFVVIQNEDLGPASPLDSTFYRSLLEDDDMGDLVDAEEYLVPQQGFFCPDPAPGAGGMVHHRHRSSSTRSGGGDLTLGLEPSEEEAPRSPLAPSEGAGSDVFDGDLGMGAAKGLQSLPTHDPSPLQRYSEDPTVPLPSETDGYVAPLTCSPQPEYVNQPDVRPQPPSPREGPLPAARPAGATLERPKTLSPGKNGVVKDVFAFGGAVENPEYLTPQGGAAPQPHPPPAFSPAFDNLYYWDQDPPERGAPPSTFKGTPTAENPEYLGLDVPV
Description: BT-474 cells were seeded into a 96-well at 2.0*10^4 cells/100 μl/well.
Compounds were dissolved and serially diluted in DMSO. The compounds were then were added, mixed, and incubated for four hours at 37° C., 5% CO2. Compounds were added using four-fold dilutions at final concentrations ranging from 10 μM to 0.01 nM.
Following the four hour incubation with compounds, cell lysates were prepared.
Plates were centrifuged for 5 min at 3000 RPM, and supernatant was removed from each well. Cells were washed 3 times by resuspension in 150 μl PBS, followed by centrifugation and removal of the supernatant, as above. […] Cells were incubated with lysis buffer for 1 hour at 4° C., and then stored at −80° C.
Enzyme-linked immunosorbent assays (ELISA) were performed to measure phosphorylated ERBB2 levels. […] The next day, plates were washed with PBS+0.05% Tween20 (PBST). 150 μl of 5% BSA blocking solution was added for 1 hour at room temperature, with shaking. Plates were washed with PBST. Cell lysates were thawed and 100 μl of lysate was added to the ELISA plate. The plates were incubated for 2 hours at room temperature, with shaking. […] Plates were incubated for 1 hour at room temperature, with shaking. Plates were then washed with PBST, and 100 μl TMB substrate solution (R&D Systems, cat #DY999) was added. Plate were incubated in the dark for 20 minutes at room temperature. 50 μl of Stop solution (R&D Systems, cat #DY994) (50 μl) was added to each well and mixed.
Optical density at 450 nm was read on an EnSpire plate reader (Perkin Elmer). The remaining kinase activity by calculated using the following formula: % Relative activity=100×(A450sample−A450LC)/(A450HC−A450LC). The low and high control values (“LC” and “HC”) were generated from lysate from wells without cells or with cells treated with 0.1% DMSO, respectively.

Structure (SMILES) | IC50 [1] | IC50 [3] | GI50 [2]
Cc1cc(Nc2ncnc3ccc(N4CC/C(=C\[C@H]5CCCN5C)C4=O)nc23)ccc1Oc1ccn2ncnc2c1 [Compound 90, (R,E)-1-(4-((4-([1,2,4]triazolo[1,5-a]pyridin-7-yloxy)-3-methylphenyl)amino)pyrido[3,2-d]pyrimidin-6-yl)-3-((1-methylpyrrolidin-2-yl)methylene)pyrrolidin-2-one] | 5770 nM | 17.1 nM | 10.8 nM
C=C1CCN(c2ccc3ncnc(Nc4ccc(Oc5ccc6nccnc6c5)c(C)c4)c3c2)C1=O [Compound 46, 1-(4-((3-methyl-4-(quinoxalin-6-yloxy)phenyl)amino)quinazolin-6-yl)-3-methylenepyrrolidin-2-one] | 759 nM | 65.1 nM | 53.9 nM
Cc1c(Oc2ccc3c(c2)ncn3C)ccc(Nc2ncnc3cnc(N4CC/C(=C\CN(C)C)C4=O)cc23)c1F [Compound 77, (3E)-3-[2-(dimethylamino)ethylidene]-1-[4-({2-fluoro-3-methyl-4-[(1-methyl-1,3-benzodiazol-5-yl)oxy]phenyl}amino)pyrido[3,4-d]pyrimidin-6-yl]pyrrolidin-2-one] | 7490 nM | 18.4 nM | 3.61 nM
Cc1cc(Nc2c(C#N)cnc3ccc(N4CC/C(=C\CN(C)C)C4=O)nc23)ccc1Oc1ccc2c(c1)ncn2C [Compound 124, 6-[(3E)-3-[2-(dimethylamino)ethylidene]-2-oxopyrrolidin-1-yl]-4-({3-methyl-4-[(1-methyl-1,3-benzodiazol-5-yl)oxy]phenyl}amino)-1,5-naphthyridine-3-carbonitrile] | > 10000 nM | 163 nM | 34.2 nM
C=C1C(=O)N(c2cc3c(Nc4ccc(Oc5ccn6ncnc6c5)c(C)c4)ncnc3cn2)C2CC12 (single isomer, unassigned; enantiomer 2) [Example S40, Enantiomer # 2, 2-{4-[(3-methyl-4-{[1,2,4]triazolo[1,5-a]pyridin-7-yloxy}phenyl)amino]pyrido[3,4-d]pyrimidin-6-yl}-4-methylidene-2-azabicyclo[3.1.0]hexan-3-one Enantiomer 2] | 6450 nM | 35.5 nM | 68.1 nM
C=C1C(=O)N(c2ccc3ncnc(Nc4ccc(Oc5ccn6ncnc6c5)c(C)c4)c3c2)C[C@H]1C [Compound 20, (S)-1-(4-(4-([1,2,4]triazolo[1,5-a]pyridin-7-yloxy)-3-methylphenylamino)quinazolin-6-yl)-4-methyl-3-methylenepyrrolidin-2-one] | 586 nM | 12 nM | 
Cc1cc(Nc2ncnc3ccc(N4CCC(=CCN(C)C)C4=O)cc23)ccc1Oc1ccn2ncnc2c1 (single isomer, unassigned) [Compound 17, (Z)-3-[2-(dimethylamino)ethylidene]-1-[4-[(3-methyl-4-[[1,2,4]triazolo[1,5-a]pyridin-7-yloxy]phenyl)amino]quinazolin-6-yl]pyrrolidin-2-one] | > 10000 nM | 19.7 nM | 
C=C1CCN(c2ccc3ncnc(Nc4ccc(Oc5ccn6ncnc6c5)c(C)c4)c3n2)C1=O [Compound 23, 1-{4-[(3-methyl-4-{[1,2,4]triazolo[1,5-a]pyridin-7-yloxy}phenyl)amino]pyrido[3,2-d]pyrimidin-6-yl}-3-methylidenepyrrolidin-2-one] | 6150 nM | 23.2 nM | 
C=C1C(=O)N(c2ccc3ncnc(Nc4ccc(Oc5ccn6ncnc6c5)c(C)c4)c3c2)C2CC12 (single isomer, unassigned) [Example S21, Enantiomer # 2, 2-{4-[(3-methyl-4-{[1,2,4]triazolo[1,5-a]pyridin-7-yloxy}phenyl)amino]quinazolin-6-yl}-4-methylidene-2-azabicyclo[3.1.0]hexan-3-one] | 1980 nM | 22.3 nM | 
C=C1C(=O)N(c2ccc3ncnc(Nc4ccc(Oc5ccn6ncnc6c5)c(C)c4)c3c2)C[C@@H]1C [Compound 19, (R)-1-(4-((4-([1,2,4]triazolo[1,5-a]pyridin-7-yloxy)-3-methylphenyl)amino)quinazolin-6-yl)-4-methyl-3-methylenepyrrolidin-2-one] | 5630 nM | 25.2 nM | 

Continued by falling IC50 [1], values first:

IC50 [1] | IC50 [3] | Structure (SMILES) | GI50 [2]
571 nM | 12.5 nM | C=C1CCN(c2ccc3ncnc(Nc4ccc(Sc5ccn6ncnc6c5)c(C)c4)c3c2)C1=O [Compound 13, 1-[4-[(3-methyl-4-[[1,2,4]triazolo[1,5-a]pyridin-7-ylsulfanyl]phenyl)amino]quinazolin-6-yl]-3-methylidenepyrrolidin-2-one] | 
538 nM | 20.8 nM | C=C1C(=O)N(c2ccc3ncnc(Nc4ccc(Oc5ccn6ncnc6c5)c(C)c4)c3c2)C2CC12 (single isomer, unassigned) [Example S21, Enantiomer # 1, 2-{4-[(3-methyl-4-{[1,2,4]triazolo[1,5-a]pyridin-7-yloxy}phenyl)amino]quinazolin-6-yl}-4-methylidene-2-azabicyclo[3.1.0]hexan-3-one] | 
497 nM | 36.2 nM | C=C1CCN(c2cc3c(Nc4ccc(Oc5ccc6c(c5)ncn6C)c(C)c4)ncnc3cn2)C1=O [Compound 39, 1-(4-((3-methyl-4-((1-methyl-1H-benzo[d]imidazol-5-yl)oxy)phenyl)amino)pyrido[3,4-d]pyrimidin-6-yl)-3-methylenepyrrolidin-2-one] | 14.6 nM
212 nM | 23.9 nM | Cc1cc(Nc2ncnc3ccc(N4CC/C(=C\CN(C)C)C4=O)nc23)ccc1Oc1cccnc1 [Compound 62, (3E)-3-[2-(dimethylamino)ethylidene]-1-(4-{[3-methyl-4-(pyridin-3-yloxy)phenyl]amino}pyrido[3,2-d]pyrimidin-6-yl)pyrrolidin-2-one] | 4.36 nM
173 nM | 13.9 nM | Cc1ccc(Oc2ccc(Nc3ncnc4ccc(N5CC/C(=C\CN(C)C)C5=O)nc34)cc2C)cn1 [Compound 49, (E)-3-(2-(dimethylamino)ethylidene)-1-(4-((3-methyl-4-((6-methylpyridin-3-yl)oxy)phenyl)amino)pyrido[3,2-d]pyrimidin-6-yl)pyrrolidin-2-one] | 0.999 nM
